Measurements taken from patent US20230119141A1, “USES OF TAXIFOLIN FOR R[…]” (PHYTO TECH CORP., priority 2021, published 2023).

Test system: SARS-CoV-2
Assay: SARS-CoV-2 infection in Golden Syrian hamsters, viral loads in swabs and organs
Format: in vivo
Description: The therapeutic efficacy of taxifolin against SARS-CoV-2 infection was examined in Golden Syrian hamsters, a small animal model that most closely recapitulates clinical and pathological features of COVID-19 in humans. See, e.g., Imai, M, et al., Proc. Nat. Acad. Sci. 117(28):16587-16595 (2020); Reagan-Shaw, S., et al., FASEB J. 22:659-661 (2007). […] Animals in the taxifolin group (n=15) received prophylactic treatment of taxifolin (66.7 mg/kg) through oral gavage (OG) before the viral infection.
After SARS-CoV-2 inoculation, animals in the taxifolin group were orally given taxifolin (66.7 mg/kg) at days 1, 3, and 5. Animals in the control group (n=10) received an equal amount of PBS through oral gavage. At day 7, certain animals in the taxifolin (n=6) group and control group (n=5) were sacrificed, and the viral loads in major organs were tested.

Structure (SMILES): O=C1c2c(O)cc(O)cc2OC(c2ccc(O)c(O)c2)C1O (stereo not shown) [taxifolin, 2-(3,4-dihydroxyphenyl)-3,5,7-trihydroxychroman-4-one]
- viral load in nasal swabs (day 5 after infection, taxifolin 66.7 mg/kg oral gavage prophylactic and at days 1, 3, 5, n=8, control ~3×10^6): ~7×10^4 RNA copies/100 μL
- viral loads in oral swabs vs control (day 7, taxifolin 66.7 mg/kg oral gavage): decreased the viral loads in oral swabs
- viral loads in the trachea vs control (day 7, taxifolin 66.7 mg/kg oral gavage, n=4 per group): clearly reduced the viral loads in the trachea
- viral loads in nasal swabs vs control (days 3 and 5 after viral infection, taxifolin 66.7 mg/kg oral gavage): significantly lowered the viral loads in nasal swabs
